Results: patent US11771709B2, “ALK protein degradation agent and anti-tumor application thereof” (ShanghaiTech University, priority 2017, dated 2023)
Read-outs that look alike come from different tables or passages of the source.

System: SR (NPM-ALK) cells
Assay: Growth inhibition IC50 in ALCL SR cells (CCK8/WST, 72 hours)
Type: cell-based
[1] = SR cells, WST, Alectinib based ALK PROTAD compounds (Table 4)

Experimental: SR (NPM-ALK) and NCI-H2228 (EML4-ALK, V3) cells were purchased from ATCC. […] All Cells were cultured in RPMI1640 medium with 10% FBS and Penicillin-Streptomycin in 37° C. incubator with 5% CO2.
Cells were seeded at specific density in 96 well plates one day before treatment. […] Viable cells were measured via CCK8 reagent and IC50s were calculated via Prism Graphad. Experiments were repeated at least three times.

SMILES | IC50 [1] | further results
CCc1cc2c(cc1N1CCNCC1)C(C)(C)c1[nH]c3cc(C#N)ccc3c1C2=O [Alectinib Analogue A, 9-ethyl-6,6-dimethyl-11-oxo-8-(piperazin-1-yl)-6,11-dihydro-5H-benzo[b]carbazole-3-carbonitrile, reference compound] |  | IC50: 2.4 nM
CCc1cc2c(cc1N1CCC(N)CC1)C(C)(C)c1[nH]c3cc(C#N)ccc3c1C2=O [Alectinib Analogue B(SIAIS184193), 8-(4-aminopiperidin-1-yl)-9-ethyl-6,6-dimethyl-11-oxo-6,11-dihydro-5H-benzo[b]carbazole-3-carbonitrile] | 14.7 nM | 
CCc1cc2c(cc1N1CCC(N3CCNCC3)CC1)C(C)(C)c1[nH]c3cc(C#N)ccc3c1C2=O [Alectinib Analogue C(SIAIS184192), 9-ethyl-6,6-dimethyl-11-oxo-8-(4-(piperazin-1-yl)piperidin-1-yl)-6,11-dihydro-5H-benzo[b]carbazole-3-carbonitrile] | 19.1 nM | 
COc1cc(N2CCNCC2)ccc1Nc1ncc(Cl)c(Nc2ccccc2P(C)(C)=O)n1 [Brigatinib Analogue A(SIAIS1197135), (2-((5-chloro-2-((2-methoxy-4-(piperazin-1-yl)phenyl)amino)pyrimidin-4-yl)amino)phenyl) dimethylphosphine oxide] |  | IC50 (SR cells, WST, 72 hours, Brigatinib-based PROTAD molecules (Table 3)): 1.6 ± 1 nM
COc1cc(N2CCC(NC(=O)CCOCCOCCOCCOCCOCCNc3cccc4c3C(=O)N(C3CCC(=O)NC3=O)C4=O)CC2)ccc1Nc1ncc(Cl)c(Nc2ccccc2P(C)(C)=O)n1 (stereo not drawn) [SIAIS151117, N-(1-(4-((5-chloro-4-((2-(dimethylphosphoryl)phenyl)amino)pyrimidin-2-yl)amino)-3-methoxyphenyl)piperidin-4-yl)-1-((2-(2,6-dioxopiperidin-3-yl)-1,3-dioxoisoindolin-4-yl)amino)-3,6,9,12,15-pentaoxaoctadecan-18-amide] |  | IC50 (72 h, SR cells, WST, Brigatinib-based PROTAD molecules (Table 3)): 30.9 ± 21.3 nM
CCc1cc2c(cc1N1CCN(C(=O)CCNc3cccc4c3C(=O)N(C3CCC(=O)NC3=O)C4=O)CC1)C(C)(C)c1[nH]c3cc(C#N)ccc3c1C2=O (stereo not drawn) [SIAIS164029, 8-(4-(3-((2-(2,6-dioxopiperidin-3-yl)-1,3-dioxoisoindolin-4-yl)amino)propanoyl)piperazin-1-yl)-9-ethyl-6,6-dimethyl-11-oxo-6,11-dihydro-5H-benzo[b]carbazole-3-carbonitrile] | 27.3 nM | 
CCc1cc2c(cc1N1CCN(C(=O)CCOCCOCCOCCC(=O)N[C@H](C(=O)N3C[C@H](O)C[C@H]3C(=O)NCc3ccc(-c4scnc4C)cc3)C(C)(C)C)CC1)C(C)(C)c1[nH]c3cc(C#N)ccc3c1C2=O [SIAIS164037, (2S,4R)-1-((S)-2-(tert-butyl)-16-(4-(3-cyano-9-ethyl-6,6-dimethyl-11-oxo-6,11-dihydro-5H-benzo[b]carbazol-8-yl)piperazin-1-yl)-4,16-dioxo-7,10,13-trioxa-3-azahexadecanoyl)-4-hydroxy-N-(4-(4-methylthiazol-5-yl)benzyl)pyrrolidine-2-carboxamide] | 153 nM | 
CCc1cc2c(cc1N1CCN(C(=O)CCCCC(=O)N[C@H](C(=O)N3C[C@H](O)C[C@H]3C(=O)NCc3ccc(-c4scnc4C)cc3)C(C)(C)C)CC1)C(C)(C)c1[nH]c3cc(C#N)ccc3c1C2=O [SIAIS164095, (2S,4R)-1-((S)-2-(6-(4-(3-cyano-9-ethyl-6,6-dimethyl-11-oxo-6,11-dihydro-5H-benzo[b]carbazol-8-yl)piperazin-1-yl)-6-oxohexanamido)-3,3-dimethylbutanoyl)-4-hydroxy-N-(4-(4-methylthiazol-5-yl)benzyl)pyrrolidine-2-carboxamide] | 71.3 nM | 
CCc1cc2c(cc1N1CCN(C(=O)CCCCCC(=O)N[C@H](C(=O)N3C[C@H](O)C[C@H]3C(=O)NCc3ccc(-c4scnc4C)cc3)C(C)(C)C)CC1)C(C)(C)c1[nH]c3cc(C#N)ccc3c1C2=O [SIAIS164096, (2S,4R)-1-((S)-2-(7-(4-(3-cyano-9-ethyl-6,6-dimethyl-11-oxo-6,11-dihydro-5H-benzo[b]carbazol-8-yl)piperazin-1-yl)-7-oxoheptanamido)-3,3-dimethylbutanoyl)-4-hydroxy-N-(4-(4-methylthiazol-5-yl)benzyl)pyrrolidine-2-carboxamide] | 79.5 nM | 
